In patent publication US9675073B2, “Insecticidal compounds based on N-arylsulfanylmethylcarboxamidearylthiosulfonamides derivatives” (Syngenta Participations AG, priority 2012, dated 2017):
Like-named read-outs stand apart in the source and are kept apart here.

Experiments:
Format in all cases: in vivo
[1] = test system: Diabrotica balteata (Corn Root Worm); assay: Diabrotica balteata L2 larvae on treated artificial diet; conditions: 120 h, application rate 200 ppm, 5 days after infestation
Description: (§1) 24-well microtiter plates with artificial diet were treated with aqueous test solutions prepared from 10,000 ppm DMSO stock solutions by pipetting. After drying, the plates were infested with L2 larvae (6 to 10 per well). The samples were assessed for mortality 5 days after infestation.

[2] = test system: Thrips tabaci (Onion Thrips); assay: Thrips tabaci sunflower leaf disc spray test; conditions: foliar, 144 h, application rate 200 ppm, mixed ages on sunflower leaf discs, 6 days after infestation
Description: Thrips tabaci (Onion Thrips):
(§2) Sunflower leaf discs were placed on agar in 24-well microtiter plates and sprayed with aqueous test solutions prepared from 10,000 ppm DMSO stock solutions. After drying the leaf discs were infested with a thrips population of mixed ages. The samples were assessed for mortality 6 days after infestation.

[3] = test system: Spodoptera littoralis (Egyptian Cotton Leaf Worm); assay: Spodoptera littoralis cotton leaf disc spray test, L1 larvae; conditions: foliar, 72 h
Description: Spodoptera littoralis (Egyptian Cotton Leaf Worm)
Cotton leaf discs were placed on agar in 24-well microtiter plates and sprayed with aqueous test solutions prepared from 10,000 ppm DMSO stock solutions. After drying the leaf discs were infested with five L1 larvae. The samples were assessed for mortality 3 days after infestation.

[4] = test system: Plutella xylostella (Diamond Back Moth); assay: Plutella xylostella L2 larvae on treated artificial diet; conditions: 120 h
Description: 24-well microtiter plates with artificial diet were treated with aqueous test solutions prepared from 10,000 ppm DMSO stock solutions by pipetting. After drying, the plates were infested with L2 larvae (10 to 15 per well). The samples were assessed for mortality 5 days after infestation.

[5] = test system: Heliothis virescens (Tobacco Budworm); assay: Heliothis virescens eggs on artificial diet; conditions: 120 h, read-out: egg or larval mortality
Description: Heliothis virescens (Tobacco Budworm):
Eggs (0-24 h old) were placed in 24-well microtiter plates on artificial diet and treated with aqueous test solutions prepared from 10,000 ppm DMSO stock solutions by pipetting. The samples were assessed for egg and larval mortality 5 days after infestation.

[6] = test system: Tetranychus urticae (Two-Spotted Spider Mite); assay: Tetranychus urticae bean leaf disc spray test; conditions: foliar, 192 h, application rate 200 ppm, mixed population (mobile stages) on bean leaf discs, 8 days after infestation
Description: Tetranychus urticae (Two-Spotted Spider Mite):
as §2, with “Bean” for “Sunflower”, “discs” for “discs were placed”, “were” for “and”, “mite” for “thrips”, “on mixed population (mobile stages) 8” for “6”

[7] = test system: Myzus persicae (Green Peach Aphid); assay: Myzus persicae sucrose solution feeding test through Parafilm; conditions: 120 h, test rate 12 ppm, 5 days after infestation
Description: Myzus persicae (Green Peach Aphid)
Test compounds from 10,000 ppm DMSO stock solutions were applied by pipette into 24-well microtiter plates and mixed with sucrose solution. The plates were closed with a stretched Parafilm. A plastic stencil with 24 holes was placed onto the plate and infested pea seedlings were placed directly on the Parafilm. The infested plate was closed with a gel blotting paper and another plastic stencil and then turned upside down. The samples were assessed for mortality 5 days after infestation.

[8] = test system: Diabrotica balteata, (Corn Root Worm); assay: Diabrotica balteata L2 larvae on sprayed maize sprouts; conditions: 96 h, application rate 200 ppm, 4 days after infestation
Description: as §1, with “Maize sprouts, placed on an agar layer in 24-well” for “24-well”, “plates” for “plates with artificial diet”, “spraying.” for “pipetting.”, “4” for “5”

[9] = application rate 200 ppm, eggs on artificial diet, 5 days after infestation

CC(=O)NCSc1ccc(C2=NOC(c3cc(Cl)cc(Cl)c3)(C(F)(F)F)C2)cc1Br (stereo not shown) [Compound A1, N-[[2-bromo-4-[5-(3,5-dichlorophenyl)-5-(trifluoromethyl)-4H-isoxazol-3-yl]phenyl]sulfanylmethyl]acetamide]
≥ 80%: mortality at 200 ppm [1] | mortality at 200 ppm [2] | mortality at 200 ppm [3] | mortality at 200 ppm [4] | mortality at 200 ppm [5] | mortality at 200 ppm [6] | mortality at 12 ppm [7]

CC(=O)NCSc1ccc(C2=CSC(c3cc(Cl)cc(Cl)c3)(C(F)(F)F)C2)cc1Br (stereo not shown) [Compound C1, N-[[2-bromo-4-[2-(3,5-dichlorophenyl)-2-(trifluoromethyl)-3H-thiophen-4-yl]phenyl]sulfanylmethyl]acetamide]
≥ 80%: mortality at 200 ppm ([3]; application rate 200 ppm, L1 larvae on cotton leaf discs, 3 days after infestation, read-out: mortality) | mortality at 200 ppm ([4]; application rate 200 ppm, L2 larvae on artificial diet, 5 days after infestation, read-out: mortality) | mortality at 200 ppm [5, 9] | mortality at 200 ppm [8]

O=C(NCSc1ccc(C2=NOC(c3cc(Cl)cc(Cl)c3)(C(F)(F)F)C2)cc1Br)c1ccccc1 (stereo not shown) [Compound A2, N-[[2-bromo-4-[5-(3,5-dichlorophenyl)-5-(trifluoromethyl)-4H-isoxazol-3-yl]phenyl]sulfanylmethyl]benzamide]
≥ 80%: mortality at 200 ppm [4] | mortality at 200 ppm [5]

O=C(NCSc1ccc(C2=NOC(c3cc(Cl)cc(Cl)c3)(C(F)(F)F)C2)cc1Br)C1CC1 (stereo not shown) [Compound A3, N-[[2-bromo-4-[5-(3,5-dichlorophenyl)-5-(trifluoromethyl)-4H-isoxazol-3-yl]phenyl]sulfanylmethyl]cyclopropanecarboxamide]
≥ 80%: mortality at 200 ppm [1] | mortality at 200 ppm [2] | mortality at 200 ppm [3] | mortality at 200 ppm [4] | mortality at 200 ppm [5] | mortality at 200 ppm [6] | mortality at 12 ppm [7]

CC1(C(=O)NCSc2ccc(C3=NOC(c4cc(Cl)cc(Cl)c4)(C(F)(F)F)C3)cc2Br)CC1 (stereo not shown) [Compound A4, N-[[2-bromo-4-[5-(3,5-dichlorophenyl)-5-(trifluoromethyl)-4H-isoxazol-3-yl]phenyl]sulfanylmethyl]-1-methyl-cyclopropanecarboxamide]
≥ 80%: mortality at 200 ppm [5]

CC(C)C(=O)NCSc1ccc(C2=CSC(c3cc(Cl)cc(Cl)c3)(C(F)(F)F)C2)cc1Br (stereo not shown) [Compound C2, N-[[2-bromo-4-[2-(3,5-dichlorophenyl)-2-(trifluoromethyl)-3H-thiophen-4-yl]phenyl]sulfanylmethyl]-2-methyl-propanamide]
≥ 80%: mortality at 200 ppm [5, 9]
